Legend:
[1] = tested on: microsomes isolated from MCF-7/ADR cells; experiment: In vitro acidification of MCF-7/ADR microsomes (acridine orange quenching); format: biochemical; conditions: for rate of dissipation of pre-existing pH gradient: added 10 minutes after ATP, tamoxifen 8 μM, bafilomycin A1 100 nM
Description: Cells were grown in Minimal Essential. Medium supplemented with 10% Fetal Bovine Serum to confluence in 10 level Cell Factories (Nunc, Naperville, Ill.), trypsinized, washed 3× with cold PBS and lysed with a Dounce homogenizer (Pestle A) in 0.25 M sucrose, 20 mM HEPES (pH 7.4), 1 mM DTT, 1 mM EDTA, and 1× protease inhibitor mix (1 μg/ml leupeptin, 1 μ/ml pepstatin A, 1 μg/ml aprotinin, and 16 μM PMSF mixed to 100× before use). The homogenate was centrifuged twice for 10 minutes at 3000×g to remove unbroken cells and nuclei. The supernatant was layered over 20 ml of 0.5 M sucrose (20 mM HEPES (pH 7.4), 1 mM DTT, 1 mM EDTA, 1× protease inhibitor mix) and 1 ml of 2 M sucrose and centrifuged for 1 hour at 100,000 g (Beckman Ti60 Rotor). Microsomes are collected at the 0.5M and 2M interface.
To monitor acidification of the total microsomal fraction, the quenching of AO fluorescence was monitored essentially as described previously [Barasch et al., Nature 352:70-73 (1991)]. Acidic vesicles accumulate AO to high concentrations resulting in the self quenching of the dye and a decrease of the overall fluorescence. Fluorescence was measured on an SLM Aminco-Bowman series 2 luminescence spectrometer with λex =488 nm and λem =530 nm Microsomes (80 μg protein) were suspended in 2.5 ml vesicle buffer (125 mM KCl, 5 mM MgCl2, 20 mM HEPES (pH 7.4), 1 mM DTT, 1 mM EDTA, 2 mM NaN3), with 6 μM AO (5 mM stock in H2 O) in a cuvet. […] After equilibration for 30 minutes at 25° C. 1 mM Tris-ATP was added to begin acidification (100 mM stock, titrated to pH 7.4 with 1 M Tris-base before use). Twenty minutes later, 2.5 μM of nigericin (10 mM stock in EtOH) was added to dissipate any ΔpH formation.
Acridine orange (AO) was used as a probe for lumenal acidification. As vesicles acidify, they accumulate AO to self-quenching concentrations, and deplete the extra-vesicular free AO, resulting in a decrease in total fluorescence. Acidification was initiated by the addition of ATP to a purified microsomal fraction in the absence of cytosol (FIG. 1A, at t=300 sec). […] Nigericin, a K^+ /H^+ exchanger that rapidly dissipates pH gradients, was added at the end of each reaction (t=1500 seconds).

[2] = Liposome chloride concentration (lucigenin); conditions: after addition of 50 mM KCl; tamoxifen 2, 4, 8 μM, valinomycin 1 μM
[3] = Description: The lumenal pH (pHL) of liposomes was assayed with pyranine, a fluorescent dye with a pKa~7.3 and a λex =405 nm in its acid form (-3 charge) and a λex =455 nm in its basic form (-4 charge). To prepare pyranine loaded liposomes, lipids (2 mg POPC, 1 mg cholesterol) supplied in chloroform suspension were dried in a round bottom flask under argon for 2 hours. The lipids were then resuspended in acidic or alkaline liposome buffer (300 mM KCl, 20 mM MES, 20 mM MOPS, 20 mM Tricine titrated with KOH to either pH 6.2 or pH 8.1) containing 0.5 mM pyranine. The suspension was incubated at room temperature overnight, then freeze-thawed 6×. Unilamellar liposomies were prepared by extrusion 3× through 2 stacked 100 nm Nucleopore (Corning/Costar Scientific, Acton, Mass.) polycarbonate filters in an Avestin (Vancouver, BC) extruder at 600 PSI.
The pyranine fluorescence was calibrated as a function of pH by diluting the liposomes with pH 6.2 into a weakly buffered solution of identical pH (300 mM KCl, 1 mM MES, 1 mM MOPS, 1 mM Tricine, pH 6.2), 1 μM nigericin to allow rapid equilibration with external pH and 5 mM DPX to quench external pyranine. The ratio of the fluorescence emission at λem =510 nm was monitored with dual excitation wavelengths of λex =405 nm and λex =455 nm. Sequential aliquots of 0.1 mM glycylglycine, pH 8.4 were added to increase pH (See FIG. 5). The fluorescence was measured after each addition and the pH was measured using a pH meter. […] The cahiration curve for the liposomes of lumenal pH 8.1 was generated identically except sequential aliquots of 0.1 mM K-MES pH 5.0 were added for titration and the curve was generated between pH 8.1 and pH 6.4.
To measure the rate of pH dissipation of liposomes with lumenal pH=6.2, the liposomes were diluted in weakly buffered solution of identical pH as described above, but with no nigericin. […] The external pH was shifted to pH 7.3 by addition of 5 mM glycylglycine pH 8.4 and the fluorescence ratio monitored. After 10 minutes, 1 μM nigericin was added to dissipate the remaining pH gradient. The pHL was calculated using the equation pH=x*log(λex =405 nm/[…])+c, were x and c are constants from the least square fit of the titration curve. To measure the rate of pH dissipation of liposomes with pHL =8.1, the identical procedure was followed except 5 mM K-MES pH 5.0 was added to shift the external pH to 6.9.
Liposomes were loaded with pyranine, a hydrophilic, non-permeable fluorescent pH indicator to assay proton permeability. […] Two steps were taken to ensure that only pHL was measured and to permit the discrimination between dissipation of pH gradient and the lysis or dye leakage from liposomes.

yeast vacuoles = experiment: Acidification of yeast vacuoles (acridine orange); format: biochemical, S. cerevisiae
Description: Vacuoles from S. cerevisiae were prepared from the protease deficient strain BJ2407 (Yeast Genetic Stock Center, University of California, Berkeley) by sequential floatation through 12% and 8% Ficoll 400 cushion as described previously [Roberts et al., Methods Enzymol, 194:644-661 (1991)] with the single modification that 1× protease inhibitor mix and 1 mM DTT was included in each step. […] Acidification was measured using AO as described above. For acidification in chloride-free solution, gluconate or glutamate was used in vesicle buffer instead of chloride.
ATP (1.5 mM) was added at 50 sec to initiate acidification and at 400 sec nigericin (1 μM) was added to dissipate pH gradients.

estrogen receptor = target: T1, estrogen receptor (Homo sapiens, UniProt P03372); conditions: higher affinity; cited from earlier work
T1 sequence (P03372 1-595): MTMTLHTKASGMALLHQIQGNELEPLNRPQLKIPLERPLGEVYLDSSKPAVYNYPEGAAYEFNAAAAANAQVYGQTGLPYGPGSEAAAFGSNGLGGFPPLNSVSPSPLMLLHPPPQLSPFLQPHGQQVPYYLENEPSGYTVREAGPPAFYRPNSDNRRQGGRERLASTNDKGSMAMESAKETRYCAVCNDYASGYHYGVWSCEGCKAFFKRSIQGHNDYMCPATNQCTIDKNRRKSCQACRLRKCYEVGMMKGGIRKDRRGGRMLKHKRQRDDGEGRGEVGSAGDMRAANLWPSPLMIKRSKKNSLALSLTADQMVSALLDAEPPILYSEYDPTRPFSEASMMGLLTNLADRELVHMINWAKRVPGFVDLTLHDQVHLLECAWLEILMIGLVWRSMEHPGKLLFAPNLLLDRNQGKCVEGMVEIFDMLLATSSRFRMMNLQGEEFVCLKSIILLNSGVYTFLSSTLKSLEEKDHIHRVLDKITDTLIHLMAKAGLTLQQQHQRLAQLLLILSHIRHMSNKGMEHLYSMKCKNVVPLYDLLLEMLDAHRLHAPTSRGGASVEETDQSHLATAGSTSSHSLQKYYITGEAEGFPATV

CO/C1=C\C(C)=C\[C@@H](C)[C@@H](O)[C@@H](C)C/C(C)=C/C=C/[C@H](OC)[C@@H]([C@@H](C)[C@@H](O)[C@H](C)[C@@]2(O)C[C@@H](O)[C@H](C)[C@@H](C(C)C)O2)OC1=O [bafilomycin A1, Bafilomycin A1]
acidification blocked ([1]; 10 nM (one tenth of 100 nM), pre-treatment, FIG. 1A): 95% | rate of dissipation of pre-existing pH gradient [1]: much slower rate

CO[C@@H]1C[C@@H](C[C@H]2CC[C@H](C)[C@H]([C@@H](C)C(=O)O)O2)O[C@]2(O[C@](C)([C@H]3CC[C@@](C)([C@@H]4O[C@@H]([C@H]5O[C@@](O)(CO)[C@H](C)C[C@@H]5C)C[C@@H]4C)O3)C[C@H]2C)[C@@H]1C [nigericin]
rate of dissipation of pre-existing pH gradient [1]: significantly faster than tamoxifen

CC(C)[C@@H]1NC(=O)[C@H](C)OC(=O)[C@@H](C(C)C)NC(=O)[C@@H](C(C)C)OC(=O)[C@H](C(C)C)NC(=O)[C@H](C)OC(=O)[C@@H](C(C)C)NC(=O)[C@@H](C(C)C)OC(=O)[C@H](C(C)C)NC(=O)[C@H](C)OC(=O)[C@@H](C(C)C)NC(=O)[C@@H](C(C)C)OC1=O [valinomycin]
rate of chloride influx into liposomes [2]: increased the rate of chloride equilibration | effect on pHL after shift of external pH ([3]; pHL 6.2, external pH shifted to 7.3, tamoxifen 0.5 or 2 μM, NH4Cl 1 mM, FCCP 1 μM, valinomycin 1 μM): faster dissipation of the pH gradient than FCCP | rate of pH gradient dissipation, alkaline lumen ([3]; pHL 8.1, external pH shifted to 6.9, tamoxifen 0.5-8 μM, NH4Cl 5 mM, FCCP 1 μM, valinomycin 1 μM): greater dissipation of pH gradient than FCCP

CC[C@@]1([C@@H]2O[C@@H]([C@H]3O[C@@](O)(CO)[C@H](C)C[C@@H]3C)C[C@@H]2C)CC[C@H]([C@]2(C)CC[C@]3(C[C@H](O)[C@@H](C)[C@@H]([C@@H](C)[C@@H](OC)[C@H](C)C(=O)O)O3)O2)O1 [monensin]
rate of dissipation of pre-existing pH gradient [1]: significantly faster than tamoxifen

Cl.N [ammonium chloride]
effect of addition to pre-acidified vacuoles (yeast vacuoles; added at 250 sec, tamoxifen 2 μM, ammonium 1 mM): step alkalinization | concentration relative to tamoxifen for similar inhibition (yeast vacuoles; ammonium chloride 1 mM): 1000 fold | inhibition of vacuole acidification (yeast vacuoles; pre-equilibrated, tamoxifen 2 μM or 8 μM, ammonium chloride 1 mM): slightly inhibited | effect of addition on pHL without pre-existing pH gradient ([3]; pHL 6.2 = external pH, tamoxifen 2 μM, 8 μM, NH4Cl 5 mM): alkalinization of the lumen

CC/C(=C(/c1ccc(OCCN(C)C)cc1)c1cccc(O)c1)c1ccccc1 [Droloxifene, 3-hydroxytamoxifen]
binding affinity to the estrogen receptor relative to tamoxifen (estrogen receptor): 10-60 fold

From patent publication US6204067A, “Methods of identifying modulators of the estrogen receptor” (Board of Trustees Operating Michigan State University, priority 1999, dated 2001)
